The values that follow come from the Kinase Knowledgebase extract (Sharma et al. 2016).

The assay deals with ROCK2 (human) (UniProt O75116). As to the kind of experiment: Inhibition of ROCK2 Kinase Activity.
Chain of ROCK2 (human) (O75116 whole entry, looked up): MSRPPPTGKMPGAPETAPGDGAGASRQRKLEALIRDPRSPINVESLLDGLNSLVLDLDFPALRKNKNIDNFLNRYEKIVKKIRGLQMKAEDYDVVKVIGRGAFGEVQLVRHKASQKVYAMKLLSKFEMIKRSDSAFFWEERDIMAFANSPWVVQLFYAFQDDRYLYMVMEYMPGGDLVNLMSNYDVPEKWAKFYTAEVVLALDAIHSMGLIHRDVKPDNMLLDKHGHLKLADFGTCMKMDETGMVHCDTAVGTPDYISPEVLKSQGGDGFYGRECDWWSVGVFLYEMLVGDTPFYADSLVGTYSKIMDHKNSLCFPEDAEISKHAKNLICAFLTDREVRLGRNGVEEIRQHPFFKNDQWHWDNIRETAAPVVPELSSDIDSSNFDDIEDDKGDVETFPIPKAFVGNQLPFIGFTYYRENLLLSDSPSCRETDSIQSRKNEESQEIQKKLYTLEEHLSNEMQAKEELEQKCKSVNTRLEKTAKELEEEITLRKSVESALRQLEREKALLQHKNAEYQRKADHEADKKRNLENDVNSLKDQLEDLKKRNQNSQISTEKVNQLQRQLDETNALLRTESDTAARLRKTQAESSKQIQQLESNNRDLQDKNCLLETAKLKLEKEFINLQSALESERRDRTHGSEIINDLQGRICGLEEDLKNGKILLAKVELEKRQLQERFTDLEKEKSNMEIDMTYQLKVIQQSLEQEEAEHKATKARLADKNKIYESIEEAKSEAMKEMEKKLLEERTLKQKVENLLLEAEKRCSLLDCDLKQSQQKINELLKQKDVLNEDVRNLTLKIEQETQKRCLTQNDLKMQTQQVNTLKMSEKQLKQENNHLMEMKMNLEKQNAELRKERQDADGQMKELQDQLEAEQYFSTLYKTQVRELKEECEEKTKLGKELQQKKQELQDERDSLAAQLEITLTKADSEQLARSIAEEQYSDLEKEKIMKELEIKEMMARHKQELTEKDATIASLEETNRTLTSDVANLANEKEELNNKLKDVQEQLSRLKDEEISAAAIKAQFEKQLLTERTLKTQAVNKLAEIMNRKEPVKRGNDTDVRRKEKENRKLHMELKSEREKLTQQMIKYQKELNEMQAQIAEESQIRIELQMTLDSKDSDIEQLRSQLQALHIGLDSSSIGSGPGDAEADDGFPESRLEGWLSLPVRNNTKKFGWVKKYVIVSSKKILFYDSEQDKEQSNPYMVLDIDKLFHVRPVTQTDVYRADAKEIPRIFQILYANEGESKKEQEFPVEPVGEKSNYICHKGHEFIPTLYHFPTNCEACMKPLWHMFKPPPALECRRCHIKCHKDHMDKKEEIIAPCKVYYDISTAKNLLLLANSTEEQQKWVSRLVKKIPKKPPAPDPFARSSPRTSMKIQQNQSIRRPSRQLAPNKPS
The term IC50 denotes the midpoint of a concentration-inhibition curve. With `COc1cc(C(=O)NCc2nc(-c3c[nH]c4ncccc34)n[nH]2)cc(Cl)n1`, the IC50 is greater than 5 µM. The same measure for `O=C(NCc1nc(-c2c[nH]c3ncccc23)n[nH]1)c1cnc(O)c(Cl)c1`: greater than 5 µM.

`O=C(NCc1nc(-c2ccncc2)n[nH]1)c1ccccc1` yielded a half-maximal inhibitory concentration (IC50) greater than 5 µM. In the case of `O=C(NCc1nc(-c2c[nH]c3ncccc23)n[nH]1)c1ccc(Cl)c(Br)c1`, the IC50 was greater than 5 µM. Then `O=C(NCc1nc(-c2ccncc2)n[nH]1)c1cc(F)c(F)cc1Cl`, with greater than 5 µM; and `CN(Cc1nc(-c2ccncc2)n[nH]1)C(=O)c1cccs1`, with greater than 5 µM. The same measure for `CCN(CC)c1ccc(C(=O)NCc2nc(-c3c[nH]c4ncccc34)n[nH]2)cc1`: greater than 5 µM; for `Cc1cc(C)cc(C(=O)NCc2nc(-c3c[nH]c4ncccc34)n[nH]2)c1`: greater than 5 µM. Then `COc1cc(C(=O)NCc2nc(-c3ccncc3)n[nH]2)c([N+](=O)[O-])cc1OC`, with greater than 5 µM; and `N#Cc1cccc(C(=O)NCc2nc(-c3ccncc3)n[nH]2)c1`, with greater than 5 µM. `CCOc1ccc2ccccc2c1C(=O)NCc1nc(-c2c[nH]c3ncccc23)n[nH]1` displayed an IC50 greater than 5 µM. Then `CCOc1ccccc1C(=O)NCc1nc(-c2c[nH]c3ncccc23)n[nH]1`, with greater than 5 µM; and `O=C(NCc1nc(-c2c[nH]c3ncccc23)n[nH]1)c1ccc(Cl)nc1`, with greater than 5 µM; and `CCCCc1ccc(C(=O)NCc2nc(-c3c[nH]c4ncccc34)n[nH]2)cc1`, with greater than 5 µM. Then `c1ccc2c(NCc3nc(-c4ccncc4)n[nH]3)ncnc2c1`, with greater than 5 µM.

`COc1cc(C(=O)NCc2nc(-c3ccncc3)n[nH]2)cc(OC)c1O`: the concentration for half-maximal inhibition (IC50) is greater than 5 µM. The same measure for `COC(=O)c1ccc(C(=O)NCc2nc(-c3c[nH]c4ncccc34)n[nH]2)cc1`: greater than 5 µM; for `O=C(NCc1nc(-c2ccncc2)n[nH]1)c1ccsc1`: no more than 5 µM. Then `O=C(NCc1nc(-c2c[nH]c3ncccc23)n[nH]1)c1ccc2ccccc2c1O`, with greater than 5 µM. Then `COc1cc(C(=O)NCc2nc(-c3c[nH]c4ncccc34)n[nH]2)cc(OC)c1OC`, with greater than 5 µM. With `O=C(NCc1nc(-c2ccncc2)n[nH]1)C1CCc2ccccc21` (stereo not drawn), the 50% inhibitory concentration (IC50) is greater than 5 µM.

In turn, `O=Cc1ccccc1C(=O)NCc1nc(-c2ccncc2)n[nH]1` returned an IC50 greater than 5 µM. Then `CC(=O)Nc1cccc(C(=O)NCc2nc(-c3c[nH]c4ncccc34)n[nH]2)c1`, with greater than 5 µM. The same measure for `O=C(NCc1nc(-c2ccncc2)n[nH]1)c1ccc2ccccc2c1O`: no more than 5 µM; for `O=C(NCc1nc(-c2c[nH]c3ncccc23)n[nH]1)c1ccccn1`: greater than 5 µM; for `CC(C)(C)C(=O)NCc1nc(-c2c[nH]c3ncccc23)n[nH]1`: greater than 5 µM.

Consider `O=C(NCc1nc(-c2c[nH]c3ncccc23)cs1)c1cccs1`, for which the IC50 was no more than 5 µM.

On to `O=C(NCc1nc(-c2c[nH]c3ncccc23)n[nH]1)c1ccc(Cl)cc1Cl`, for which the 50% inhibitory concentration (IC50) was greater than 5 µM. The same measure for `CC(=O)c1cccc(C(=O)NCc2nc(-c3c[nH]c4ncccc34)n[nH]2)c1`: greater than 5 µM; for `O=C(NCc1nc(-c2ccncc2)n[nH]1)c1cccc(O)c1`: greater than 5 µM; for `O=C(NCc1nc(-c2ccncc2)n[nH]1)C1CCCO1` (stereo not drawn): greater than 5 µM. The same measure for `CC(=O)NCC(=O)NCc1nc(-c2c[nH]c3ncccc23)n[nH]1`: greater than 5 µM; for `CC(C)(C)OC(=O)N1CC(O)CC1C(=O)NCc1nc(-c2c[nH]c3ncccc23)n[nH]1` (stereo not drawn): greater than 5 µM.

`CC(C)(C)OC(=O)NCC(=O)NCc1nc(-c2ccncc2)n[nH]1` displayed a half-maximal inhibitory concentration (IC50) greater than 5 µM. The same measure for `Cc1ccc(C(=O)NCc2nc(-c3ccncc3)n[nH]2)c(O)c1`: no more than 5 µM; for `CC(C(=O)NCc1nc(-c2ccncc2)n[nH]1)c1ccc(-c2ccccc2)c(F)c1` (stereo not drawn): greater than 5 µM. The compound `Cc1ccc(C)c(C(=O)NCc2nc(-c3c[nH]c4ncccc34)n[nH]2)c1` showed a 50% inhibitory concentration (IC50) greater than 5 µM. The same measure for `O=C(NCc1nc(-c2c[nH]c3ncccc23)n[nH]1)c1ccccc1-c1ccccc1`: greater than 5 µM.
